# Key:
# MCF-7 (breast cancer) = assay: MTT cytotoxicity assay, MCF-7; format: cell-based; settings: 72 h, mean, SD in next cell
# Experimental: (§1) The human epithelial ovarian cancer A2780 cell line and its cisplatin-resistant clone A2780cis were obtained from Sigma-Aldrich (Milano, Italy). A2780cis cells were continuously exposed to 1 μM cisplatin to maintain cisplatin resistance. A549 cells (Human non-small cell lung cancer), MCF7 (metastatic breast cancer), PC3 (highly aggressive metastatic prostate cancer), and MG63 (osteosarcoma) were obtained from the American Type Culture Collection (ATCC). Cells were authenticated in laboratory using the PowerPlex 16 HS System. A2780, A2780cis, and PC3 cells were cultured in RPMI-1640 medium; MG63 and MCF7 cells were cultured in DMEM, and A549 cells were cultured in F12 NUT-MIX. The culture medium contained about 10% fetal bovine serum (FBS) (Gibco, Thermo Fisher Scientific, Monza, Italy), about 1% (v/v) of penicillin (10,000 units/mL)-streptomycin (10 mg/mL), and about 1% (v/v) L-glutamine (200 mM) (all from Sigma-Aldrich). Cells were cultured at 37° C. in a 5% CO2, fully humidified atmosphere.
# (§2) 2.5×10^3 (PC3, MG63, MCF7) or 4.0×10^3 (A2780, A2780cis, A549) cells were seeded in 96-well microplates in 100 μL culture medium. Cells, allowed to adhere for 24 h, were then treated in triplicate with increasing concentrations of gold compounds. Cisplatin was included as a reference drug. Cell viability was evaluated using 3-(4,5-dimethylthiazol-2-yl)-2,5-diphenyltetrazolium bromide (MTT) assay (Sigma-Aldrich) after 72 h of treatment. Half maximal inhibitory concentrations (IC50), IC25, and IC75 were calculated using the CalcuSyn software version 2 (Biosoft, Ferguson, MO, USA) (See: Chou, T. C.; Talalay, P. Quantitative Analysis of Dose-Effect Relationships: The Combined Effects of Multiple Drugs or Enzyme Inhibitors. Adv. Enzyme Regul. 1984, 22, 27-55, which is incorporated herein by reference in its entirety). Fold resistance was calculated as the ratio of the IC50 of the A2780cis to that of the parental cell line A2780. Alternatively, cell viability was assayed by crystal violet staining (See: Feoktistova, M.; Geserick, P.; Leverkus, M. Crystal Violet Assay for Determining Viability of Cultured Cells. Cold Spring Harb Protoc 2016, 2016, pdb.prot087379, which is incorporated herein by reference in its entirety). Alternatively, after drug treatment, the culture Medium was removed, cells washed, fixed, and stained, and the Crystal Violet solution lasted 20 minutes (See: Sulaiman, A. A. A.; Casagrande, N.; Borghese, C.; Corona, G.; Isab, A. A.; Ahmad, S.; Aldinucci, D.; Altaf M. Design, Synthesis, and Preclinical Activity in Ovarian Cancer Models of New Phosphanegold(I)—N-Heterocyclic Carbene Complexes. J Med Chem 2022, 65, 14424-14440, which is incorporated herein by reference in its entirety).
# [1] = test system: PC3 (androgen-resistant prostate cancer); assay: MTT cytotoxicity assay, PC3; format: cell-based; settings: 72 h, mean (SD)
# Experimental: as §1, §2
# A549-MCTSs = assay: 3D-A549-MCTS viability (PrestoBlue); format: cell-based, human
# Experimental: To obtain multiple spheroids, 10.0×10^4 A549 cells were seeded in non-adherent conditions on poly-HEMA coated 96 wells (final volume, 200 μL) for four days. After drug treatment (72 h), the cell viability was determined using PrestoBlue Cell Viability Reagent (Thermo Fisher Scientific, Frederick, MD, USA) (See: Casagrande, N.; Celegato, M.; Borghese, C.; Mongiat, M.; Colombatti, A.; Aldinucci, D. Preclinical Activity of the Liposomal Cisplatin Lipoplatin in Ovarian Cancer. Clin Cancer Res 2014, 20, 5496-5506, which is incorporated herein by reference in its entirety).
# 3D-MCTSs are a model for in vitro drug testing (See: Zanoni, M.; Piccinini, F.; Arienti, C.; Zamagni, A.; Santi, S.; Polico, R.; Bevilacqua, A.; Tesei, A. 3D Tumor Spheroid Models for in Vitro Therapeutic Screening: A Systematic Approach to Enhance the Biological Relevance of Data Obtained. Sci Rep 2016, 6, 19103, which is incorporated herein by reference in its entirety) and to test drug tissue penetration. Thus, the effects of complex 3 in A549-MCTSs were determined by cultivating tumor cells in non-adherent conditions on poly-HEMA coated wells. […] Representative micro-photographs of A549-MCTSs treated with complex 3 (0.3-5 μM) and with cisplatin (15-250 μM) are shown in FIG. 9C.
# A549 (lung cancer cells) = assay: MTT cytotoxicity assay, A549; format: cell-based, human; settings: 72 h, mean (SD)
# Experimental: as §1, §2
# [2] = test system: A2780cis (cisplatin-resistant clone of A2780); assay: MTT cytotoxicity assay, A2780cis; format: cell-based, human; settings: for Fold resistance (A2780cis/A2780): IC50 A2780cis/IC50 A2780; for IC50: MTT, 72 h, mean, SD in next cell
# Experimental: as §1, §2
# [3] = test system: A2780 ovarian cancer cells; assay: MTT cytotoxicity assay, A2780; format: cell-based, human; settings: 72 h, mean (SD)
# Experimental: as §1, §2
# MG-63 (osteosarcoma) = assay: MTT cytotoxicity assay, MG-63; format: cell-based; settings: 72 h, mean, SD in next cell
# Experimental: as §1
# 2.5×10^3 (PC3, MG63, MCF7) or 4.0×10^3 (A2780, A2780cis, A549) cells were seeded in 96-well microplates in 100 μL culture medium. Cells, allowed to adhere for 24 h, were then treated in triplicate with increasing concentrations of gold compounds. Cisplatin was included as a reference drug. Cell viability was evaluated using 3-(4,5-dimethylthiazol-2-yl)-2,5-diphenyltetrazolium bromide (MTT) assay (Sigma-Aldrich) after 72 h of treatment. Half maximal inhibitory concentrations (IC50), IC25, and IC75 were calculated using the CalcuSyn software version 2 (Biosoft, Ferguson, MO, USA) (See: Chou, T. C.; Talalay, P. Quantitative Analysis of Dose-Effect Relationships: The Combined Effects of Multiple Drugs or Enzyme Inhibitors. Adv. Enzyme Regul. 1984, 22, 27-55, which is incorporated herein by reference in its entirety). Fold resistance was calculated as the ratio of the IC50 of the A2780cis to that of the parental cell line A2780. […]
# [4] = test system: A2780 ovarian cancer cells; settings: from J Med Chem 2022, 65, 14424; cited from earlier work
# [5] = test system: A2780cis (cisplatin-resistant clone of A2780); settings: from J Med Chem 2022, 65, 14424; cited from earlier work
Compound,IC50 (MCF-7 (breast cancer)),IC50 [1],IC50 ([1]; listed as cisplatin),"IC50 (A549-MCTSs; 72 h, PrestoBlue, poly-HEMA coated wells)",IC50 fold higher than complex 3 in A549-MCTSs (A549-MCTSs; cisplatin vs complex 3),IC50 (A549 (lung cancer cells)),IC50 (A549 (lung cancer cells); listed as cisplatin),Fold resistance (A2780cis/A2780) [2],IC50 [2],IC50 [3],IC50 (MG-63 (osteosarcoma)),anti-proliferative activity in A2780 cells (comparison) [4],anti-proliferative activity in A2780cis cells (comparison) [5]
"N.N.[Cl][Pt][Cl] [Cisplatin, reference compound]",22200 nM,3320 nM,3300 nM,44000 nM,46 fold,6210 nM,6200 nM,6.93,10400 nM,1510 nM,–,–,–
"CC(C)c1cccc(C(C)C)c1-n1ccn(-c2c(C(C)C)cccc2C(C)C)[c]1=[Au-][P+](CC[P+]([Au-]=[c]1n(-c2c(C(C)C)cccc2C(C)C)ccn1-c1c(C(C)C)cccc1C(C)C)(c1ccccc1)c1ccccc1)(c1ccccc1)c1ccccc1 [Complex 1, [(Au(IPr))2(C26H24P2)](PF6)2]",170 nM,280 nM,–,–,–,220 nM,–,1.18,330 nM,280 nM,310 nM,–,–
"CC(C)c1cccc(C(C)C)c1-n1ccn(-c2c(C(C)C)cccc2C(C)C)[c]1=[Au-][P+](CCC[P+]([Au-]=[c]1n(-c2c(C(C)C)cccc2C(C)C)ccn1-c1c(C(C)C)cccc1C(C)C)(c1ccccc1)c1ccccc1)(c1ccccc1)c1ccccc1 [Complex 2, [(Au(IPr))2(C27H26P2)](PF6)2]",280 nM,250 nM,–,–,–,260 nM,–,1.61,450 nM,280 nM,420 nM,–,–
CC(C)c1cccc(C(C)C)c1-n1cc[n+](-c2c(C(C)C)cccc2C(C)C)[c]1[Au-][P+](C1CCCCC1)(C1CCCCC1)C1CCCCC1.ClC(Cl)Cl.F[P-](F)(F)(F)(F)F [[Au(IPr)(Cy3P)]PF6·CHCl3],–,–,–,–,–,–,–,–,–,–,–,more active,more active

# Source: US20250222009A1, “DINUCLEAR GOLD(I) COMPLEXES FOR TREATING CANCER” (KING FAHD UNIVERSITY OF PETROLEUM AND MINERALS, priority 2024, published 2025)
